Structures can show the parent of a compound that is named as a salt. Where two headings read alike, the source gives them in different places.
Assays:
Type in all cases: cell-based
[1] = Cytotoxicity in H9c2 cells (CCK-8); details: rat, H9c2 cells; H9c2 cell line
Method: The cytotoxicity in H9c2 (ATCC®CRL-1446™) cells was also determined. The H9c2 cells were maintained in DMEM (Dulbecco's Modified Eagle's Medium) supplemented with 10% fetal bovine serum (MidSci; S01520HI) and 1% penicillin-streptomycin (Sigma-Aldrich; P4333) at 37° C. with 5% CO2. The H9c2 cells were seeded in 96-well plate one day before the experiment. Different concentrations of di-amidine compounds were added into the H9c2 cells. The cells were then incubated with the compounds for 24 hours at 37° C. with 5% CO2. The cell viability was tested by the CCK-8. Specifically, after 24 hour incubation, 10 μL CCK-8 was added to each well. After 3 hours incubation at 37° C., the absorbance at 450 nm was recorded by a plate reader.

[2] = test system: E. coli (ATCC 25922); assay: MIC determination, sensitization fold and FIC index on E. coli; details: for Sensitization: compound up to 25 μM; for MIC: Escherichia coli; for MIC of AB with MD-124: MD-124 concentration 5 μg/ml
Method: Bacteria culture and MICs determination: Gram-negative bacteria were cultured in Mueller Hinton II cation-adjusted broth. Gram-positive bacteria were cultured in LB broth. Mycobacterium smegmatis was cultured in Middlebrook 7H9 Broth. MICs of antibiotics itself were determined by performing two-fold serial dilutions of antibiotics. MICs of antibiotics in the presence of bacterial sensitizers were determined by performing two-fold serial dilutions of antibiotics with or without a constant concentration of bacterial sensitizers. The MICs tests were performed on 96-well plates with a final volume of 200 μl Mueller Hinton II cation-adjusted broth in each well. Each well was inoculated with 5×10^5 CFU/ml bacteria and was incubated for 24 h at 37° C. with continuous shaking of 200 rpm. The bacterial density was then determined by OD600. Bacterial growth %=OD600 of antibiotic treatment group/OD600 of antibiotic non-treatment group. MICs was determined as the concentrations that inhibit more than 90% of bacteria growth.
Sensitization fold determination and FIC index calculations: Sensitization fold=MIC of antibiotic only/MIC of antibiotic with bacterial sensitizer. […] Since the MICs were determined by performing two-fold serial dilutions of antibiotic, so the sensitization fold can is the times of 2.
FIC index between compound a and b was calculated according to the formula below: […]
FIC≤0.5: Synergy; FIC between 0.5 and 1: Additive; FIC between 1 and […]: no interaction; FIC >4: antagonism.
Bacteria strains (as indicated in Table 5B) were cultured with rifampicin at various concentrations in the presence or absence of 10 μM of the indicated compound for 20 h at 37° C. The MIC, sensitization, cytotoxicity, and MIC on mycobacteria were tested according to methods described herein. […] The sensitization activities of compounds on MRSA were tested using rifampicin. The sensitization activities of compounds on E. coli were tested using rifampicin.

[3] = test system: B. subtilis; assay: MIC determination and sensitization fold on B. subtilis; details: for MIC: Bacillus subtilis, 24 h, compound alone, read-out: MIC; for sensitization fold with 5.5 μg/ml DB2560: B. subtilis towards the antibiotic
[4] = test system: NDM-1 expressing E. coli strain; assay: microbe, parasite or virus in culture; details: Escherichia coli; antibiotic alone (Table 14); read-out: MIC on NDM-1 over-expression E. coli
[5] = test system: mcr-1 over-expressing E. coli strains; assay: microbe, parasite or virus in culture; details: Escherichia coli
[6] = ATCC25922, 24 h, E. coli, compound alone, read-out: MIC
[7] = E. coli towards the antibiotic, MD-124 5 μg/ml
[8] = ATCC25922, 24 h, E. coli (wild type), antibiotic alone, read-out: MIC of AB only
[9] = B. subtilis, erythromycin, compound at 6 μM
[10] = E. coli, rifampicin, compound at 25 μM
[11] = E. coli, rifampicin, compound at 10 μM
[12] = B. subtilis, erythromycin, compound at 12 μM

## COc1cc(C2=NCCN2)ccc1OCc1cccc(COc2ccc(C3=NCCN3)cc2OC)c1F [DB2555, dihydrochloride]
[1]
  CC50 at 24 h: 50 µM
[2]; E. coli, rifampicin
  Sensitization: No effect up to 25 μM
[2]; [6]
  MIC: > 50 µM

## C[C@H]1COc2c(N3CCN(C)CC3)c(F)cc3c(=O)c(C(=O)O)cn1c23 [Levofloxacin, reference compound]
[2]; [7]
  Sensitization fold: 8 fold
[2]; E. coli
  MIC of AB with MD-124: 6.2 ng/mL
[2]; [8]
  MIC: 50 ng/mL

## N=C(N)c1ccc(OCOc2ccc(C(=N)N)cc2)cc1 [DB1824]
[3]; B. subtilis, erythromycin, compound at 12.5 μM
  Sensitization fold: 2-fold at 12.5 μM,
[3]; B. subtilis
  MIC: 12.5 µM
[1]
  CC50 at 24 h: > 100 µM
[2]; E. coli, rifampicin
  Sensitization: No effect up to 25 μM
[2]; [6]
  MIC: > 100 µM

## COc1cccc(OC)c1C(=O)N[C@@H]1C(=O)N2[C@@H]1SC(C)(C)[C@@H]2C(=O)O [methicillin, reference compound]
[3]
  sensitization fold with 5.5 μg/ml DB2560: 4 fold

## N=C(N)c1ccc(OCc2cccc(COc3ccc(C(N)=O)cc3)n2)cc1 [DB2449]
[3]; B. subtilis, erythromycin, compound up to 25 μM
  Sensitization: No effect up to 25 μM
[3]; B. subtilis
  MIC: > 50 µM
[1]
  CC50 at 24 h: > 100 µM
[2]; E. coli, rifampicin
  Sensitization: No effect up to 25 μM
[2]; [6]
  MIC: > 100 µM

## N[C@@H]1CCCCN(c2c(F)cc3c(=O)c(C(=O)O)cn(C4CC4)c3c2Cl)C1 [Besifloxacin, reference compound]
[2]; [7]
  Sensitization fold: 8 fold
[2]; E. coli
  MIC of AB with MD-124: 12.5 ng/mL
[2]; [8]
  MIC: 100 ng/mL

## CO[C@H]1/C=C/O[C@@]2(C)Oc3c(C)c(O)c4c(O)c(c5c(nc6cc(C)ccn65)c4c3C2=O)NC(=O)/C(C)=C\C=C\[C@H](C)[C@H](O)[C@@H](C)[C@@H](O)[C@@H](C)[C@H](OC(C)=O)[C@@H]1C [Rifaximin, reference compound]
[2]; [7]
  Sensitization fold: 64 fold
[2]; E. coli
  MIC of AB with MD-124: 200 ng/mL
[2]; [8]
  MIC: 12500 ng/mL

## N=C(N)c1ccc(OCCCCCCOc2ccc(C(=N)N)cc2)cc1 [DB2362]
[3]; [9]
  Sensitization fold: 4-fold at 6 μM
[1]
  CC50 at 24 h: 25 µM
[2]; [10]
  Sensitization fold: 8-fold at 25 μM;
[2]; [6]
  MIC: 50 µM

## C[C@@H](O)[C@H]1C(=O)N2C(C(=O)O)=C(S[C@@H]3CN[C@H](C(=O)Nc4cccc(C(=O)O)c4)C3)[C@H](C)[C@H]12 [entrapenem, reference compound]
[3]
  sensitization fold with 5.5 μg/ml DB2560: 4 fold

## Fc1cc(C2=NCCN2)ccc1OCc1cccc(COc2ccc(C3=NCCN3)cc2F)c1F [DB2554, 1,3-Bis {4-(2-imidazolino)-2-fluoro)-phenoxy methyl}-2-fluorobenzene dihydrochloride]
[1]
  CC50 at 24 h: 50 µM
[2]; E. coli, rifampicin
  Sensitization: No effect up to 25 μM
[2]; [6]
  MIC: > 50 µM

## Fc1c(COc2ccc(C3=NCCN3)cc2)cccc1COc1ccc(C2=NCCN2)cc1 [DB2510, 1,3-Bis {(4-(2-imidazolino))-phenoxymethyl}-2-fluorobenzene dihydrochloride]
[1]
  CC50 at 24 h: 25 µM
[2]; E. coli, rifampicin
  Sensitization: No effect up to 25 μM
[2]; [6]
  MIC: > 50 µM

## CC(C)(O/N=C(\C(=O)N[C@@H]1C(=O)N2C(C(=O)[O-])=C(C[n+]3ccccc3)CS[C@H]12)c1csc(N)n1)C(=O)O [Ceftazidime, reference compound]
[2]; ATCC25922, antibiotic alone (Table 14), read-out: MIC on wild-type E.coli
  MIC: < 200 ng/mL
[4]
  MIC: > 6250 ng/mL

## Cc1onc(-c2ccccc2Cl)c1C(=O)N[C@@H]1C(=O)N2[C@@H]1SC(C)(C)[C@@H]2C(=O)O [Cloxacillin, reference compound]
[2]; [7]
  Sensitization fold: >4 fold
[2]; E. coli
  MIC of AB with MD-124: 75000 ng/mL
[2]; [8]
  MIC: > 300000 ng/mL

## N=C(N)c1ccc(COc2cc(OCc3ccc(C(=N)N)cc3F)cc(C(F)(F)F)c2)c(F)c1 [MD-127, dihydrochloride]
[2]; [11]
  Sensitization fold: 516-fold at 10 μM
[2]; [6]
  MIC: 100 µM

## N=C(N)c1ccc(OCc2cccc(COc3ccc(C(=N)N)cc3)n2)cc1 [DB2447]
[3]; B. subtilis, erythromycin, compound at 2 μM
  Sensitization fold: No effect at 2 μM.
[1]
  CC50 at 24 h: > 100 µM
[2]; E. coli, rifampicin
  Sensitization: No effect up to 25 μM
[2]; [6]
  MIC: 100 µM

## CC[C@H]1OC(=O)[C@H](C)[C@@H](O[C@H]2C[C@@](C)(OC)[C@@H](O)[C@H](C)O2)[C@H](C)[C@@H](O[C@@H]2O[C@H](C)C[C@H](N(C)C)[C@H]2O)[C@](C)(O)C[C@@H](C)CN(C)[C@H](C)[C@@H](O)[C@]1(C)O [Azithromycin, reference compound]
[2]; [7]
  Sensitization fold: 16 fold
[2]; E. coli
  MIC of AB with MD-124: 400 ng/mL
[2]; [8]
  MIC: 6200 ng/mL

## CC[C@H]1OC(=O)[C@H](C)[C@@H](O[C@H]2C[C@@](C)(OC)[C@@H](O)[C@H](C)O2)[C@H](C)[C@@H](O[C@@H]2O[C@H](C)C[C@H](N(C)C)[C@H]2O)[C@](C)(OC)C[C@@H](C)C(=O)[C@H](C)[C@@H](O)[C@]1(C)O [Clarithromycin]
[5]; mcr-1 over-expression E. coli strain (MIC of polymyxin B 30 μg/ml), read-out: MIC of AB only
  MIC: 25000 ng/mL
[5]; read-out: MIC of AB with 5 μg/ml MD-124, mcr-1 over-expression E. coli strain (MIC of polymyxin B 30 μg/ml)
  MIC: ≤ 200 ng/mL

## Cc1cc(-c2nc3cc(C(=N)N)ccc3n2C)sc1-c1ccc(OCCCCOc2ccc(C(=N)N)cc2)cc1 [DB2583]
[3]; [12]
  Sensitization fold: 16-fold at 12 μM
[3]; B. subtilis
  MIC: 25 µM
[1]
  CC50 at 24 h: 12.5 µM
[2]; E. coli, rifampicin
  Sensitization: No effect up to 25 μM
[2]; [6]
  MIC: 100 µM

## Cc1ccc(COc2ccc(C(=N)N)cc2)cc1COc1ccc(C(=N)N)cc1 [MD-119, 1,3-Bis {(4-amidino)-phenoxymethyl}-6-methylbenzene dihydrochloride]
[3]; [9]
  Sensitization fold: 16-fold at 6 μM
[3]; [12]
  Sensitization fold: 32-fold at 12 μM,
[3]; B. subtilis
  MIC: 25 µM
[2]; E. coli, rifampicin, compound at 12.5 μM
  Sensitization fold: 4-fold at 12.5 μM.
[2]; [10]
  Sensitization fold: 32-fold at 25 μM,
[2]; ATCC25922, 24 h
  MIC: 100 µM

## CC[C@H]1OC(=O)[C@H](C)[C@@H](O[C@H]2C[C@@](C)(OC)[C@@H](O)[C@H](C)O2)[C@H](C)[C@@H](O[C@@H]2O[C@H](C)C[C@H](N(C)C)[C@H]2O)[C@](C)(O)C[C@@H](C)C(=O)[C@H](C)[C@@H](O)[C@]1(C)O [Erythromycin, reference compound]
[3]; B. subtilis
  MIC of erythromycin in the absence of DB2560: 0.05 ng/mL
  MIC of erythromycin in the presence of DB2560: 0.0015 ng/mL
[2]; E. coli
  MIC of AB with MD-124: 400 ng/mL
[2]; ATCC25922, read-out: MIC of erythromycin in the presence of 10 μg/ml MD-100, wild-type E. coli
  MIC: 1600 ng/mL

## N=C(N)c1ccc(CCc2cc(CCc3ccc(C(=N)N)cc3)cc(C(F)(F)F)c2)cc1 [MD-128, 1,3-Bis {(4-amidino)-phenethyl}-5-trifluoromethylbenzene dihydrochloride]
[2]; [11]
  Sensitization fold: 516-fold at 10 μM
[2]; ATCC25922, 24 h
  MIC: 100 µM

## COc1c(N2C[C@@H]3CCCN[C@@H]3C2)c(F)cc2c(=O)c(C(=O)O)cn(C3CC3)c12 [Moxifloxacin, reference compound]
[2]; [7]
  Sensitization fold: 8 fold
[2]; E. coli
  MIC of AB with MD-124: 6.2 ng/mL
[2]; [8]
  MIC: 50 ng/mL

## c1cc(COc2ccc(C3=NCCN3)cc2)cc(COc2ccc(C3=NCCN3)cc2)c1 [DB2538, 1,3-Bis {(4-(2-imidazolino))-phenoxymethyl}-benzene dihydrochloride]
[3]; [12]
  Sensitization fold: 4-fold at 12 μM
[3]; B. subtilis
  MIC: > 50 µM
[1]
  CC50 at 24 h: < 12.5 µM
[2]; E. coli, rifampicin
  Sensitization: No effect up to 25 μM
[2]; [6]
  MIC: > 50 µM

## polymyxin B nonapeptide [PMBN, reference compound]
[2]; E. coli, rifampicin, 20 μg/ml bacterial sensitizer
  Sensitization fold: 16 fold

## CO[C@H]1/C=C/O[C@@]2(C)Oc3c(C)c(O)c4c(O)c(c(/C=N/N5CCN(C6CCCC6)CC5)c(O)c4c3C2=O)NC(=O)/C(C)=C\C=C\[C@H](C)[C@H](O)[C@@H](C)[C@@H](O)[C@@H](C)[C@H](OC(C)=O)[C@@H]1C [Rifapentine, reference compound]
[2]; [7]
  Sensitization fold: 32 fold
[2]; E. coli
  MIC of AB with MD-124: 800 ng/mL
[2]; [8]
  MIC: 25000 ng/mL

Reference: patent US20230105108A1, “COMPOUNDS FOR THE TREATMENT OF BACTERIAL INFECTIONS AND POTENTIATION OF ANTIBIOTICS” (GEORGIA STATE UNIVERSITY RESEARCH FOUNDATION, INC., priority 2019, published 2023)
